{"source": "patent US20160175249A1", "about": "“Liposomes Containing Oligopeptide Fragments of Myelin Basic Protein, a Pharmaceutical Composition and a Method for Treatment of Multiple Sclerosis” (LIPOXEN TECHNOLOGIES LIMITED, priority 2009, published 2016)", "key": {"[1]": {"tested_on": "experimental autoimmune encephalomyelitis (EAE) in DA rats", "assay": "EAE in DA rats treated with MBP peptides in mannosylated SUV liposomes (Example 10)", "format": "in vivo", "experimental": "All animal studies were carried out in animal facilities of Assaf Harofeh Medical Center (Zerifin, Israel) using standard approved practices for animal care. Induction of EAE was performed in 8-9 weeks Dark Agouti (DA) female rats. Briefly, rats were injected intradermally at the base of the tail with a total volume of 200 μl of inoculum, containing […] of MBP(63-81) (ANASPEC), in saline mixed (1:1) with CFA, (incomplete Freund's adjuvant (IFA), Sigma), and 1 mg MT (strain H37 RA; Difco Laboratories, Detroit, Mich.). Animals developing symptoms of MS were included to the study. Rats were treated with different liposomes formulations (Table 3), copaxone, or placebo (vehicle) under similar conditions for 6 days. All formulations were administrated by one subcutaneous injection per day. Animals were followed up till day 28th post EAE induction. Clinical signs score was performed daily during all study periods. Score gradation was the following: 0—Normal 1—tail weakness, 2—hind leg weakness or paralysis, 3—hind leg paralysis, dragging hind limbs, 4—complete paralysis, unable to move, 5—death.\nLiposomes were assembled from a mixture of egg phosphatidylcholine (PC) and one molar percent mannosylated DOG (ManDOG) (Durova OM, supra). Assembly of SUV liposomes was performed as illustrated in FIG. 3: (i) formation of irregular lipid layers during evaporation of organic solvent, followed by re-hydration leading to the multi-layer multilamellar vesicle (MLV) liposomes formation; (ii) high-pressure homogenization resulting in formation of empty SUV; (iii) freeze drying of SUV liposomes with peptides—at this stage peptides are located between collapsed SUV liposomes; and (iv) encapsulation of peptides during second re-hydration into the SUV liposomes with an average diameter of approximately 60-100 nm, containing 1.0% mannose residues on their surface. Four formulations were used for this study: each B cell epitope MBP peptide (MBP1, MBP2, and MBP3) individually and a 1:1:1 mixture (by mass) of all three peptides.\nSmall unilamellar vesicles (SUV) were prepared from egg phosphatidylcholine (PC) and mannosylated DOG (Espuelas S. et al., Synthesis of an amphiphilic tetraantennary mannosyl conjugate and incorporation into liposome carriers, 2003 Bioorg Med Chem Lett., August 4; 13(15):2557-60, the contents of which are hereby incorporated by reference in their entirety for all purposes) (1:100 molar ratio) by high pressure homogenization (Durova OM, supra). Briefly, lipid mixture (100 mg/ml) in CHCl3 was dried under vacuum, further re-suspended in Milli-Q water to a final lipid concentration 50 mg/ml, followed by high-pressure homogenization (20,000 psi). Resulting SUV were mixed with peptides (lipid to peptide ratio 330:1) together with excess sugar (lactose to lipid ratio 3:1) with subsequent freeze-drying. Following rehydration under controlled conditions, the resulting SUV liposomes were washed by centrifugation to remove non-incorporated materials. The washed pellets were re-suspended in PBS to the required dose volume. Peptide incorporation was estimated on the basis of reversed-phase HPLC using linear gradient of acetonitrile applied on C18 column. The z-average diameter and zeta potential of liposomes were measured on a Brookhaven ZetaPlus zetasizer at 25° C. by diluting […] of the dispersion to the required volume with 1 mM PBS or appropriate media.\nTo test the therapeutic potential of the four formulations, DA rates presenting with induced EAE were subcutaneously injected with one of the four mannosylated liposomal formulations, copaxone (positive control), free (un-encapsulated) MBPI peptide (negative control), and empty mannosylated liposomes (vehicle control; Table 3).\nTreatment of each rat was initiated at the first sign of EAE clinical manifestation. […]"}, "EAE-induced DA rats": {"tested_on": "EAE-induced DA rats", "assay": "EAE-induced DA rat model, paralysis score and mortality (DA-EAE-28-05, Example 14)", "format": "in vivo", "settings": "versus water control (Group 1); days 1-4 post-treatment; daily s.c., 6 total; n=6", "experimental": "Each of the four MBP peptide formulations being evaluated were provided as lyophilized powders and stored at 4° C. Each formulation was rehydrated in water for injection according to Table 13. Copaxone (Teva LTD) was diluted with Saline to a final concentration of 720 μg/mL. Each subject animal was administered the test formulation for 6 consecutive days by subcutaneous injection.\n8-9 week old Dark Agouti (DA) female rats (Harlan Laboratories, Inc.), weighing between 110 and 145 grams were used as the test subjects. The health status of the animals used in this study was examined on arrival. Only animals in good health were acclimatized to laboratory conditions and were used in the study. Animals were provided food ad libitum and free access to drinking water. Animals were housed in a controlled environment at between 20° C. and 24° C. with a relative humidity of 30-70% and a 12 hr light/12 hr dark cycle. Animals were randomly assigned to their respective test group. […]\nThe rats were evaluated up daily starting 24 hours after immunization. […] The animals were maintained and evaluated until day 28th post EAE-induction. […]\nAnimals were observed individually and clinical signs were recorded once daily during all study periods. […] The body weight of each animals was determined daily during all study periods."}}, "note": "“Also recorded” adds a separate entry of the source."}
{"substance": "glatiramer acetate [copaxone]", "values": [{"measurement": "mean disease score course (FIG. 4)", "setting": "[1]; 6 daily s.c. injections from first clinical sign", "value": "EAE amelioration rate similar to treatment with the MBP1/2/3 SUV formulation; also recorded: did not fully recover from EAE after the initial attack"}, {"measurement": "Mortality", "setting": "[1]; one s.c. injection per day, 6 injections, deaths/N", "value": "0/12"}, {"measurement": "Median Cumulative Disease Score", "setting": "[1]; one s.c. injection per day, 6 injections, doses per Table 3", "value": 18.5}, {"measurement": "Median Maximal Disease Score (IQR)", "setting": "[1]; one s.c. injection per day, 6 injections, doses per Table 3, score 0-5", "value": "2 (1.25)^1"}, {"measurement": "paralysis score", "setting": "EAE-induced DA rats", "value": "non-statistically significant difference (tendency)"}]}
